“Also recorded” adds a separate entry of the source.
How the values were obtained:
rats = details: cited from earlier work; for osteosarcoma on long-term usage: rats
[1] = men and women who can lose 20-30% of cortical and cancellous bone; cited from earlier work
MC-3T3 cells = assay: Gene expression by real-time PCR in MC-3T3 cells incubated with synthetic bear or human PTH 1-34 (Example 11); assay type: cell-based; details: 100 nM; for expression ratio of Bax/Bcl-2: 3 hours, MC-3T3 cells (FIG. 7, n=4); for expression of type I collagen / expression of osteocalcin: 6 hours, MC-3T3 cells; for expression of type I collagen: compared to the vehicle control; for expression of osteocalcin: compared to the vehicle control (FIG. 6, n=2)
Method: MC-3T3 cells were incubated in vehicle or 100 nM synthetic bear or human PTH 1-34 for 3 or 6 hours (n=2 or 4). Total RNA was isolated, and cDNA was generated with reverse transcription. Primers for the bone matrix proteins type I collagen and osteocalcin, the pro-apoptotic protein Bax, the anti-apoptotic protein Bcl-2, and the housekeeping genes Gapdh, β-actin, and cyclophillin were designed using PrimerQuest software (Integrated DNA Technologies, Coralville, Iowa). Real-time PCR was performed using the Mx3000P real-time PCR system (Stratagene, LaJolla, Calif.). All samples were measured in duplicate. Gene expression was determined using the relative standard curve method normalized to the geometric mean of the three housekeeping genes (Gapdh, β-actin, and cyclophillin). Apoptosis-related genes were analyzed as the expression ratio of Bax/Bcl-2, since a decrease in this ratio is associated with decreased apoptosis in vitro.

[2] = test system: MC-3T3 osteoblastic cells and MLO-Y4 osteocytic cells; assay: Gene expression in bone cell lines by real-time PCR (Example 7); assay type: cell-based; details: 100 nM PTH polypeptide, 1 or 3 hours
Method: Full-length recombinant black bear PTH (residues 1-84) is produced and its effects on levels of gene expression in bone cell lines (MC-3T3 osteoblastic cells and MLO-Y4 osteocytic cells) are investigated and are compared to results obtained using recombinant human PTH 1-84. Equivalent experiments are conducted using subfragments of black bear and human PTH, the subfragments including amino acid residues 1-34, 1-36, 7-84, 11-84, and 41-52 of the full-length (1-84) mature protein. For some experiments, black bear and human PTH polypeptides are synthesized with solid-phase methods.
To determine the effect of black bear and human PTH on regulation of bone matrix, transcriptional regulatory, anti-apoptosis (Bcl-2) genes, and the pro-apoptosis gene Bax, cells are cultured for 1 or 3 hours with human or bear PTH 1-84 or a subfragment. Gene expression is quantified with real-time PCR. […]
Reverse transcription to generate cDNA is performed using Superscript II reverse transcriptase (Invitrogen, Carlsbad, Calif.), and 0.5 μg Oligo(dT) 12-18 primer at 42° C. for 20 minutes, 50° C. for 10 minutes and 42° C. for 1 hour in a gradient thermocycler (Mastercycler gradient, Eppendorf, Westbury, N.Y.). […] Gene expression is determined using the relative standard curve method normalized to the geometric mean of the three housekeeping genes. […]

ovariectomized rats = details: cited from earlier work
procollagen-1 mRNA = details: Nasu et al., 1998; cited from earlier work
[3] = humans, once daily; cited from earlier work

Q: Which “osteosarcoma on long-term usage” value (rats) does the source give for “ALX1-11: recombinant human PTH 1-84 (NPS Pharmaceuticals), under consideration for FDA approval” here?
A: The value was “generates osteosarcoma”.

Q: What about the “lost bone recovered during suggested treatment regimen” value [1] of the same molecule?
A: The value was 8%.

Q: Which “osteosarcoma on long-term usage” value (rats) does the source give for `CC[C@H](C)[C@H](NC(=O)[C@H](CCC(=O)O)NC(=O)[C@H](CO)NC(=O)[C@@H](NC(=O)[C@@H](N)CO)C(C)C)C(=O)N[C@@H](CCC(N)=O)C(=O)N[C@@H](CC(C)C)C(=O)N[C@@H](CCSC)C(=O)N[C@@H](Cc1cnc[nH]1)C(=O)N[C@@H](CC(N)=O)C(=O)N[C@@H](CC(C)C)C(=O)NCC(=O)N[C@@H](CCCCN)C(=O)N[C@@H](Cc1cnc[nH]1)C(=O)N[C@@H](CC(C)C)C(=O)N[C@@H](CC(N)=O)C(=O)N[C@@H](CO)C(=O)N[C@@H](CCSC)C(=O)N[C@@H](CCC(=O)O)C(=O)N[C@@H](CCCN=C(N)N)C(=O)N[C@H](C(=O)N[C@@H](CCC(=O)O)C(=O)N[C@@H](Cc1c[nH]c2ccccc12)C(=O)N[C@@H](CC(C)C)C(=O)N[C@@H](CCCN=C(N)N)C(=O)N[C@@H](CCCCN)C(=O)N[C@@H](CCCCN)C(=O)N[C@@H](CC(C)C)C(=O)N[C@@H](CCC(N)=O)C(=O)N[C@@H](CC(=O)O)C(=O)N[C@H](C(=O)N[C@@H](Cc1cnc[nH]1)C(=O)N[C@@H](CC(N)=O)C(=O)N[C@@H](Cc1ccccc1)C(=O)O)C(C)C)C(C)C` [LY333334] here?
A: The value was “generates osteosarcoma”.

Q: With “bear PTH 1-34: synthetic polypeptide of amino acid residues 1-34 of black bear parathyroid hormone, SEQ ID NO: 2 (SVSEIQFMHNLGKHLSSMERVEWLRKKLQDVHNF; listed as Ursus americanus)” as the molecule, how does the “expression ratio of Bax/Bcl-2” value (MC-3T3 cells) read?
A: The value was “decreased”.

Q: What about the “expression ratio of Bax/Bcl-2” value (MC-3T3 cells; listed as black bear PTH 1-34) of the same molecule?
A: Its value is “decreases”.

Q: And the “expression of type I collagen” value (MC-3T3 cells)?
A: Its value is “did not affect”.

Q: What about the expression of osteocalcin (MC-3T3 cells) of the same molecule?
A: The expression of osteocalcin was “substantially upregulated”.

Q: What about the expression of osteocalcin (MC-3T3 cells; listed as black bear PTH 1-34) of the same molecule?
A: The expression of osteocalcin was “upregulate”.

Q: What about the “gene expression (bone matrix, transcriptional regulatory and transcriptional activator genes)” value [2] of the same molecule?
A: Its value is “upregulates”.

Q: Which results are given for “bovine PTH 1-34: bovine PTH 1-34; rat PTH 1-34 has 5 amino acid sequence differences from it (AVSEIQFMHNLGKHLSSMERVEWLRKKLQDVHNF; Parathyroid hormone; UniProt P01268 32-65, looked up, fragment)”?
A: greater bone formation response than to rat PTH 1-34 (ovariectomized rats; daily 25 μg injections): 25%; greater increase in bone volume fraction during treatment (ovariectomized rats; injection, versus rat PTH 1-34): 37%

Q: With “human PTH 1-34: synthetic human PTH 1-34, the 1-34 region of human PTH, used as comparator (SVSEIQLMHNLGKHLNSMERVEWLRKKLQDVHNF; Parathyroid hormone; UniProt P01270 32-65, looked up, fragment)” as the molecule, how does the “expression ratio of Bax/Bcl-2” value (MC-3T3 cells) read?
A: The value was “increases”.

Q: And the “expression of type I collagen” value (MC-3T3 cells)?
A: Its value is “did not affect”.

Q: And the expression of osteocalcin (MC-3T3 cells)?
A: Its expression of osteocalcin is “substantially upregulated; also recorded: upregulate”.

Q: What about the “production of procollagen-1 mRNA” value (procollagen-1 mRNA) of the same molecule?
A: Its value is “down-regulates”.

Q: With “human PTH 1-84: full-length human parathyroid hormone, residues 1-84” as the molecule, how does the “rate of carcinogenicity compared with human PTH 1-34” value (rats; preliminary results) read?
A: Its value is “lower”.

B1: Human PTH: human parathyroid hormone given once daily to humans (protein, UniProt P01270 32-115, looked up)
Parathyroid hormone: SVSEIQLMHNLGKHLNSMERVEWLRKKLQDVHNFVALGAPLAPRDAGSQRPRKKEDNVLVESHEKSLGEADKADVNVLTKAKSQ
modifications: Parathyroid hormone
Q: What does the source list for B1?
A: bone mass [3]: increases; fracture incidence [3]: decreases

Source: US7994129B2, “Methods of using black bear parathyroid hormone” (Michigan Technological University, priority 2005, dated 2011)
